Like-named read-outs stand apart in the source and are kept apart here. Ends that are not written are not given here.
Tests used:
[1] = tested on: Aβ production in cell cultures; details: cells cultured in media containing excess of the FLAG-coupled NH2-terminal domain of PS-1 (residues 1–80), ref [13], cited from earlier work
Excerpt: In that work we had selected the NH2-t ... || Peptide P1, comprising the first 80 amino acids of PS-1, scrambled P1 and the two large oligopeptides corresponding to the two halves of the human P1 (peptides P2 and P3, Table 1), were first synthesized and tested in vitro for their effect on the production of Aβ40 and 42.

[2] = tested on: NICD / γ-secretase in Jurkat cells; test: NICD levels in extracts of Jurkat cells by ELISA (γ-secretase activity); details: 0–100 nM, 24 h, percent control, n = 2
Procedure: Jurkat cells (Sigma) were cultured in RPMI 1640 medium supplemented with 10% FCS, 2 mM L-glutamine, penicillin and streptomycin at 37°C in the presence of 5% CO2. […] After harvesting the cells, extracts were prepared by sonication in lysis buffer (Cell Signaling Technologies) supplemented with 1mM PMSF and complete protease inhibitor cocktail (Roche). The solubilized extracts were then used in ELISA assays to determine NICD levels, as a measure of γ-secretase activity, using the PathScan Cleaved Notch 1 (Val 1744) sandwich ELISA kit (Cell Signaling Technologies) according to the manufactuer’s protocols.

[3] = target: T1, soluble ectodomain of APP (APPs, APP 695) (Homo sapiens, UniProt P05067); test: Biolayer interferometry, biotinylated peptides on streptavidin biosensors vs purified soluble APP (APPs); type: binding; details: 30°C, biotinylated peptide on SA biosensors
T1 construct: host or cells: Sf9 insect cells (baculovirus), conditioned medium
T1 sequence (P05067 18-612 isoform P05067-4 limits assumed): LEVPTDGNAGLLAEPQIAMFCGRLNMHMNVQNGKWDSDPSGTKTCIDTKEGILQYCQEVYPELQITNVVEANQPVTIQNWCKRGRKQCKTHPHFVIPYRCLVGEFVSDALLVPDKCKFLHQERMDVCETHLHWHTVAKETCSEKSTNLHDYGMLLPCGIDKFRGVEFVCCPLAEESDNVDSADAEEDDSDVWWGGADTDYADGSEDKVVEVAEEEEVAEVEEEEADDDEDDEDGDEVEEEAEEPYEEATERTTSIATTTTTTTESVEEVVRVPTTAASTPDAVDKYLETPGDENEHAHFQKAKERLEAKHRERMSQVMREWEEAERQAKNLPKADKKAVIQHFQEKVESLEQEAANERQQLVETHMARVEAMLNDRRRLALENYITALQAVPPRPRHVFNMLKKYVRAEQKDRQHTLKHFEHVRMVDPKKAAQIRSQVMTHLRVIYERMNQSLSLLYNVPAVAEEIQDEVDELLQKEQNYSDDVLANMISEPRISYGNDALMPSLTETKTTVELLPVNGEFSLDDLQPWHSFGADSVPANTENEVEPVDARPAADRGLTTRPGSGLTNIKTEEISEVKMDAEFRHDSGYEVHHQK
Procedure: Sf9 cells (ATCC CRL 1711) were grown in TMN-FH complete medium (Pharmingen) in suspension and infected at a multiplicity of infection of 2 with a titred stock of recombinant virus expressing human APP695. Conditioned media and/or cells were harvested 6 days after infection. Cells and debris were removed by centrifugation (at 1000 x g for 15 min).
Recombinant baculoviruses were produced according to published protocols. A fragment containing full-length APP 695 was subcloned into the baculovirus transfer vector pBlueBac3 (Invitrogen). The resulting recombinant vector was co-transfected with baculovirus DNA into sf9 cells. Recombinant APP expression was verified by Western blot hybridization using mouse MAb against human APP (Cat # MAB348, Millipore).
APPs was purified from baculovirus conditioned medium to >95% purity, as assessed by densitometry analysis of Coomassie stained SDS PAGE gels, by Arvys Proteins, Stamford, CT, using the following strategy. The conditioned medium proteins were purified by heparin-affinity chromatography, followed by two gel filtration chromatography steps over HiPrep Sephacryl S300 columns and two steps of anion exchange chromatography on HiTrapQ columns.
The binding affinities of peptides P1, scrambled P1, P4, P5, P7 and P8 for the soluble ectodomain of APP or control IgG were measured by biolayer interferometry on an Octet RED96 System (Pall FortéBio Corp., Menlo Park, CA). This system monitors interference of light reflected from two sources (an internal reflection surface and the liquid/solid interface of a fiber optic sensor) to measure the rate of binding of molecules to the biosensor surface.
Peptides were synthesized and biotinylated at the NH2-terminus by Dr. Michael Freydkin at Biopeptides, Inc., San Diego, CA, and purified to >95% by HPLC. Biotinylated peptides were loaded onto Streptavidin (SA) biosensors (Pall FortéBio Corp.) at empirically determined concentrations. All affinity measurements were carried out in Kinetics Buffer (KB) (1X PBS, 0.002% Tween-20, and 0.01% BSA) at 30°C. Typically, the biosensors were pre-equilibrated in KB for 120s, loaded with a biotinylated peptide at optimal concentrations and times, quenched with 10 μg/ml biocytin in KB for 180s, brought to baseline in KB for 120s and transferred to wells containing purified APPs (0–200 nM). Multiple negative controls were run for each peptide including association buffer only (no APP) or with IgG replacing APP. Binding kinetics were calculated using the FortéBio Data Analysis v7.1 software. The association (k on) and dissociation (k off) rate constants were obtained by fitting the association and dissociation data to a 1:1 model. Binding affinity, KD, was calculated as k off/k on.

[4] = tested on: IMR-32 human neuroblastoma cell-line (endogenous Aβ40 or 42 production); test: Endogenous Aβ40 and 42 production in IMR-32 culture medium by ELISA; type: cell-based; details: for Effect on Aβ40 and 42 production in vitro (in words): 0–5 μM peptide, 24 h, IMR-32 culture medium, ELISA; for Production of total Aβ and of Aβ 40 and 42 (summary in words): Discussion summary, stated as in vitro and in vivo (mThy1-hAPP Tg mice)
Procedure: A human neuroblastoma cell-line, IMR-32 (ATCC CCL-127) was cultured in MEM Earles medium containing 10% fetal bovine serum, 2 mM L-glutamine in the presence of penicillin and streptomycin. Equal numbers of cells (0.3 x 10^6 per well) were plated on 6-well plates overnight. Peptides (0–5 μM) were added to fresh culture medium (500 μl per well) and left in the incubator for 24 hours, after which the culture medium from each well was removed and stored at -80°C in the presence of 4-(2-Aminoethyl) benzenesulfonyl fluoride hydrochloride (AEBSF) and protease inhibitors. Prior to use, the culture medium was centrifuged in an eppendorf microfuge for 5 min at 4°C, the supernatant diluted with an equal volume of sample diluent buffer (Wako) and analyzed for the presence of Aβ40 or 42 using a commercial ELISA kit (Wako).

## FLAG-PS-1 (residues1-80): bacterially produced FLAG-PS-1 (residues1-80)
[1]
  Aβ production (in words): robust inhibition of Aβ
[1]; listed as NH2-terminal domain of PS-1 (residues 1–80) coupled to the FLAG protein
  Aβ production (in words): markedly inhibited

## CC(C)[C@H](O)C(=O)N[C@@H](C)C(=O)N[C@@H]1C(=O)N(C)CCc2ccccc21 [Semagacestat, reference compound]
[2]
  NICD levels in Jurkat cells, γ-secretase inhibitor (in words): inhibited in a dose-dependent manner

## DEEEDEELTLKYGAK [Peptide P7]
[3]; 1:1 model, Kinetics Buffer
  koff: 0.00105 s⁻¹
  kon: 104000 M⁻¹ s⁻¹
[3]; k off/k on, 1:1 model, Kinetics Buffer (1X PBS, 0.002% Tween-20, 0.01% BSA)
  Kd: 10.1 nM

## RQVVEQDEEEDEELT [Peptide P6, residues 60–74 of PS-1]
[4]
  Effect on Aβ40 and 42 production in vitro (in words): substantial dose-dependent reduction in Aβ40 and 42
  Production of total Aβ and of Aβ 40 and 42 (summary in words): markedly reducing the production of total Aβ and of Aβ 40 and 42 in vitro and in vivo

## SNGRPQGNSRQVVEQ [Peptide P5, residues 51–65 of PS-1]
[4]
  Effect on Aβ40 and 42 production in vitro (in words): no significant effect on Aβ production
  Production of total Aβ and of Aβ 40 and 42 (summary in words): did not reduce Aβ
[3]; Kinetics Buffer
  Binding to purified APPs (in words): no significant binding to APP
